Laboratory results: patent US20250144067A1, “PERSONALIZED STARVATION THERAPY FOR CANCER” (Faeth Therapeutics, Inc., priority 2021, published 2025)
Where a name gives a salt, the structure may show the parent alone.

Assays:
[1] = system: NCI-H292 lung cancer cells; assay: FDA drug screening, complete media vs cholesterol-free media without statin (TABLE 1); format: cell-based, human
[2] = system: NCI-H292 lung cancer cells; assay: FDA drug screening, complete media vs cholesterol-free media with simvastatin (TABLE 2); format: cell-based, human; settings: for Cholesterol-free media + simvastatin (0.04 μM) / Complete Media: NCI-H292 cells
[3] = Complete minus Cholesterol-free, […]
[4] = NCI-H292 cells, cholesterol-free media without statin, FDA drug library screen
[5] = NCI-H292 cells, complete media, FDA drug library screen
[6] = complete media vs cholesterol-free media + simvastatin (0.04 μM), […]
[7] = Complete minus Cholesterol-free, greater than 0 enhanced anti-cancer activity, about 0 neutral, below 0 antagonist
[8] = NCI-H292 cells, FDA drug library screen, cholesterol-free media without statin
[9] = NCI-H292 cells, FDA drug library screen, complete media
[10] = cholesterol-free media with simvastatin 0.04 μM, cell growth value in FDA drug screen
[11] = complete media, cell growth value in FDA drug screen
[12] = complete media minus cholesterol-free media + simvastatin, >0 enhanced anti-cancer activity, about 0 neutral, <0 antagonist
[13] = Complete minus Cholesterol-free, >0 enhanced anti-cancer activity, about 0 neutral, <0 antagonist
[14] = cholesterol-free media with simvastatin 0.04 μM, FDA drug library screen (TABLE 2)
[15] = complete media, FDA drug library screen (TABLE 2)
[16] = complete media minus cholesterol-free media + simvastatin (0.04 μM), >0 enhanced anti-cancer activity, about 0 neutral, <0 antagonist
[17] = complete vs cholesterol-free media, >0 enhanced anti-cancer activity, about 0 neutral, <0 antagonist
[18] = FDA drug library screen, cholesterol-free media with simvastatin 0.04 μM
[19] = FDA drug library screen, complete media
[20] = complete media vs cholesterol-free media + simvastatin (0.04 μM), >0 enhanced anti-cancer activity, about 0 neutral, <0 antagonist
[21] = NCI-H292 cells, cholesterol-free media without statin
[22] = complete vs cholesterol-free media, greater than 0 enhanced anti-cancer activity, about 0 neutral, below 0 antagonists

Row | SMILES | Cholesterol-free [1, 4] | Complete [1, 5] | Difference [2, 12] | Cholesterol-free media + simvastatin (0.04 μM) [2, 18] | Complete Media [2, 19] | Difference [2, 20] | Cholesterol-free [1, 21] | Complete ([1]; NCI-H292 cells, complete media) | further results
1 | CC[C@H](C)[C@H]1O[C@]2(CC[C@@H]1C)C[C@@H]1C[C@@H](C/C=C(\C)[C@@H](O[C@H]3C[C@H](OC)[C@@H](O[C@H]4C[C@H](OC)[C@@H](O)[C@H](C)O4)[C@H](C)O3)[C@@H](C)/C=C/C=C3\CO[C@@H]4[C@H](O)C(C)=C[C@@H](C(=O)O1)[C@]34O)O2 [Ivermectin] | 0.1454 | 0.1503 | – | – | – | – | – | – | Difference [1, 3]: 0.00; Cholesterol-free media + simvastatin (0.04 μM) ([2]; FDA library drug in cholesterol-free media with simvastatin 0.04 μM): 1.074; Complete Media ([2]; FDA library drug in complete media): 0.4557; Difference [2, 6]: −0.62
2 | N#Cc1ccnc(N2C(=O)CC[C@H]2C(=O)N(c2cncc(F)c2)[C@H](C(=O)NC2CC(F)(F)C2)c2ccccc2Cl)c1 [Ivosidenib] | – | – | 0.05 | – | – | – | – | – | Difference [1, 7]: −0.17; Cholesterol-free [1, 8]: 0.9061; Complete [1, 9]: 0.7326; Cholesterol-free media + simvastatin (0.04 μM) [2, 10]: 0.8742; Complete Media [2, 11]: 0.9265
3 | C/C(=C\c1csc(C)n1)[C@@H]1C[C@@H]2O[C@]2(C)CCC[C@H](C)[C@H](O)[C@@H](C)C(=O)C(C)(C)[C@@H](O)CC(=O)N1 [Ixabepilone] | 0.1019 | 0.09155 | – | – | – | – | – | – | Difference [1, 13]: −0.01; Cholesterol-free media + simvastatin (0.04 μM) [2, 14]: 0.1261; Complete Media [2, 15]: 0.1336; Difference [2, 16]: 0.01
4 | CC(C)C[C@H](NC(=O)CNC(=O)c1cc(Cl)ccc1Cl)B1OC(=O)C(CC(=O)O)(CC(=O)O)O1 [Ixazomib citrate] | −0.00597 | 0.1018 | – | 0.141 | 0.02787 | −0.11 | – | – | Difference [1, 17]: 0.11
5 | CC(C)C[C@H](NC(=O)CNC(=O)c1cc(Cl)ccc1Cl)B(O)O [Ixazomib] | 0.05045 | −0.01336 | – | – | – | – | – | – | Difference [1, 13]: −0.06; Cholesterol-free media + simvastatin (0.04 μM) [2, 14]: 0.01223; Complete Media [2, 15]: −0.009398; Difference [2, 16]: −0.02
6 | CO[C@@H]1[C@@H](O[C@@H]2O[C@H](C)[C@@H](O[C@H]3C[C@@](C)(O)[C@@H](OC(=O)CC(C)C)[C@H](C)O3)[C@H](N(C)C)[C@H]2O)[C@@H](CC=O)C[C@@H](C)[C@@H](O)/C=C/C=C/C[C@@H](C)OC(=O)C[C@H]1OC(C)=O [Josamycin] | 0.6797 | 1.216 | – | 0.9194 | 0.8246 | −0.09 | – | – | Difference [1, 17]: 0.54
7 | C=C1CC[C@@H]2[C@](C)(COC(=O)CCC(=O)[O-])[C@H](OC(=O)CCC(=O)O)CC[C@@]2(C)[C@@H]1/C=C/C1=CCOC1=O.[K+] [Kalii Dehydrographolidi Succinas] | – | – | – | 0.8904 | 1.183 | – | 1.388 | 1.081 | Difference ([1]; complete vs cholesterol-free media, […]): −0.31; Difference ([2]; complete media minus cholesterol-free media + simvastatin, […]): 0.29
8 | C[C@H]1O[C@H](OC2[C@@H](O)[C@@H](O)C(O)[C@H](O)[C@H]2O)[C@@H](N)C[C@@H]1N=C(N)C(=O)O.Cl.O (some centres unmarked) [Kasugamycin (hydrochloride hydrate)] | 1.256 | 1.194 | – | 1.288 | – | – | – | – | Difference [1, 3]: −0.06; Difference [2, 6]: −0.14
9 | O=C(c1ccc(F)cc1)C1CCN(CCn2c(=O)[nH]c3ccccc3c2=O)CC1 [Ketanserin] | – | – | 0.02 | – | – | – | – | – | Difference ([1]; Complete minus Cholesterol-free, greater than 0 enhanced anti-cancer activity, about 0 neutral, below 0 antagonists): −0.47; Cholesterol-free ([1]; NCI-H292 cells in cholesterol-free media without statin): 1.183; Complete ([1]; NCI-H292 cells in complete media): 0.7093; Cholesterol-free media + simvastatin (0.04 μM) [2, 10]: 1.439; Complete Media [2, 11]: 1.462
10 | CC(=O)N1CCN(c2ccc(OCC3COC(Cn4ccnc4)(c4ccc(Cl)cc4Cl)O3)cc2)CC1 (centres unmarked) [Ketoconazole] | – | – | 0.60 | 0.2012 | 0.801 | – | 1.003 | 0.6148 | Difference [1, 22]: −0.39
11 | CC(C(=O)O)c1cccc(C(=O)c2ccccc2)c1 (centres unmarked) [Ketoprofen] | – | – | 0.02 | – | – | – | 1.284 | 0.8938 | Difference [1, 22]: −0.39; Cholesterol-free media + simvastatin (0.04 μM) [2, 10]: 0.9565; Complete Media [2, 11]: 0.9752
12 | NC(CO)(CO)CO.O=C(c1ccccc1)c1ccc2n1CCC2C(=O)O (centres unmarked) [Ketorolac (tromethamine salt)] | – | – | – | – | – | −0.17 | 1.112 | 0.6871 | Difference [1, 22]: −0.42; Cholesterol-free media + simvastatin (0.04 μM) ([2]; drug in cholesterol-free media with simvastatin 0.04 μM): 1.289; Complete Media ([2]; drug in complete media): 1.116
13 | N[C@@H](Cc1c[nH]c2ccc(O)cc12)C(=O)O [L-5-Hydroxytryptophan] | – | – | – | 1.408 | 1.327 | −0.08 | – | – | Difference [1, 7]: −0.10; Cholesterol-free [1, 8]: 1.028; Complete [1, 9]: 0.9245
